What was measured:
Format in all cases: functional
[1] = Cytotoxicity against human UO31 cells assessed as growth inhibition; settings: UO-31
[2] = tested on: NCI-H460; experiment: Cytotoxicity against human NCI-H460 cells assessed as growth inhibition
[3] = tested on: MDA-MB-435; experiment: Cytotoxicity against human MDA-MB-435 cells assessed as growth inhibition
[4] = tested on: Malme-3M; experiment: Cytotoxicity against human MALME-3M cells assessed as growth inhibition
[5] = tested on: COLO 205; experiment: Cytotoxicity against human COLO205 cells assessed as growth inhibition
[6] = tested on: MDA-MB-231; experiment: Cytotoxicity against human MDA-MB-231 cells assessed as growth inhibition
[7] = tested on: M14; experiment: Cytotoxicity against human M14 cells assessed as growth inhibition
[8] = Cytotoxicity against human UACC257 cells assessed as growth inhibition; settings: UACC-257
[9] = tested on: HOP-62; experiment: Cytotoxicity against human HOP62 cells assessed as growth inhibition
[10] = tested on: NCI-H23; experiment: Cytotoxicity against human NCI-H23 cells assessed as growth inhibition
[11] = tested on: RPMI-8226; experiment: Cytotoxicity against human RPMI8226 cells assessed as growth inhibition
[12] = tested on: SNB-19; experiment: Cytotoxicity against human SNB19 cells assessed as growth inhibition
[13] = Cytotoxicity against human EKVX cells assessed as growth inhibition
[14] = tested on: MOLT-4; experiment: Cytotoxicity against human MOLT4 cells assessed as growth inhibition
[15] = tested on: MDA-MB-468; experiment: Cytotoxicity against human MDA-MB-468 cells assessed as growth inhibition
[16] = Cytotoxicity against human OVCAR4 cells assessed as growth inhibition; settings: OVCAR-4
[17] = Cytotoxicity against human HCT15 cells assessed as growth inhibition; settings: HCT-15
[18] = Cytotoxicity against human OVCAR3 cells assessed as growth inhibition; settings: OVCAR-3
[19] = Cytotoxicity against human NCI-ADR-RES cells assessed as growth inhibition
[20] = tested on: T47D; experiment: Cytotoxicity against human T47D cells assessed as growth inhibition
[21] = tested on: RXF 393; experiment: Cytotoxicity against human RXF393 cells assessed as growth inhibition
[22] = tested on: SNB-75; experiment: Cytotoxicity against human SNB75 cells assessed as growth inhibition
[23] = tested on: PC-3; experiment: Cytotoxicity against human PC3 cells assessed as growth inhibition
[24] = tested on: SF-268; experiment: Cytotoxicity against human SF268 cells assessed as growth inhibition
[25] = tested on: LOX IMVI; experiment: Cytotoxicity against human LOXIMVI cells assessed as growth inhibition
[26] = tested on: 786-0; experiment: Cytotoxicity against human 786-0 cells assessed as growth inhibition
[27] = tested on: A549; experiment: Cytotoxicity against human A549 cells assessed as growth inhibition
[28] = tested on: CAKI-1; experiment: Cytotoxicity against human CAKI-1 cells assessed as growth inhibition
[29] = tested on: HOP-92; experiment: Cytotoxicity against human HOP92 cells assessed as growth inhibition
[30] = tested on: MCF7; experiment: Cytotoxicity against human MCF7 cells assessed as growth inhibition
[31] = tested on: IGROV-1; experiment: Cytotoxicity against human IGROV1 cells assessed as growth inhibition
[32] = Cytotoxicity against human UACC62 cells assessed as growth inhibition; settings: UACC-62
[33] = tested on: NCI-H226; experiment: Cytotoxicity against human NCI-H226 cells assessed as growth inhibition
[34] = tested on: NCI-H522; experiment: Cytotoxicity against human NCI-H522 cells assessed as growth inhibition
[35] = tested on: SK-MEL-5; experiment: Cytotoxicity against human SK-MEL-5 cells assessed as growth inhibition
[36] = tested on: SK-MEL-2; experiment: Cytotoxicity against human SK-MEL-2 cells assessed as growth inhibition
[37] = tested on: HCC 2998; experiment: Cytotoxicity against human HCC2998 cells assessed as growth inhibition
[38] = tested on: U-251; experiment: Cytotoxicity against human U251 cells assessed as growth inhibition
[39] = Cytotoxicity against human OVCAR8 cells assessed as growth inhibition; settings: OVCAR-8
[40] = Cytotoxicity against human OVCAR5 cells assessed as growth inhibition; settings: OVCAR-5
[41] = Cytotoxicity against human Hs 578T cells assessed as growth inhibition
[42] = tested on: HT-29; experiment: Cytotoxicity against human HT-29 cells assessed as growth inhibition
[43] = tested on: SF-295; experiment: Cytotoxicity against human SF295 cells assessed as growth inhibition
[44] = tested on: SN12C; experiment: Cytotoxicity against human SN12C cells assessed as growth inhibition
[45] = tested on: SW-620; experiment: Cytotoxicity against human SW620 cells assessed as growth inhibition
[46] = tested on: SK-OV-3; experiment: Cytotoxicity against human SKOV3 cells assessed as growth inhibition
[47] = tested on: CCRF-CEM; experiment: Cytotoxicity against human CCRF-CEM cells assessed as growth inhibition
[48] = tested on: KM12; experiment: Cytotoxicity against human KM12 cells assessed as growth inhibition
[49] = tested on: K562; experiment: Cytotoxicity against human K562 cells assessed as growth inhibition
[50] = tested on: TK-10; experiment: Cytotoxicity against human TK10 cells assessed as growth inhibition
[51] = tested on: SK-MEL-28; experiment: Cytotoxicity against human SK-MEL-28 cells assessed as growth inhibition
[52] = tested on: SF-539; experiment: Cytotoxicity against human SF539 cells assessed as growth inhibition
[53] = tested on: A498; experiment: Cytotoxicity against human A498 cells assessed as growth inhibition
[54] = tested on: NCI-H322M; experiment: Cytotoxicity against human NCI-H322M cells assessed as growth inhibition
[55] = tested on: HL-60(TB); experiment: Cytotoxicity against human HL-60(TB) cells assessed as growth inhibition
[56] = tested on: DU-145; experiment: Cytotoxicity against human DU145 cells assessed as growth inhibition
[57] = tested on: SR; experiment: Cytotoxicity against human SR cells assessed as growth inhibition
[58] = tested on: HCT-116; experiment: Cytotoxicity against human HCT116 cells assessed as growth inhibition
[59] = tested on: ACHN; experiment: Cytotoxicity against human ACHN cells assessed as growth inhibition
[60] = tested on: BT-549; experiment: Cytotoxicity against human BT549 cells assessed as growth inhibition

Cc1cc(/C=C2\Cc3c([nH]c4ccccc34)C2=O)cc(C)c1O
GI50 [1]: 320 nM | GI50 [2]: 420 nM | GI50 [3]: 160 nM | GI50 [4]: 310 nM | GI50 [5]: 19500 nM | GI50 [6]: 3190 nM | GI50 [7]: 410 nM | GI50 [8]: 26100 nM | GI50 [9]: 650 nM | GI50 [10]: 1790 nM | GI50 [11]: 670 nM | GI50 [12]: 710 nM | GI50 [13]: 2590 nM | GI50 [14]: 6010 nM | GI50 [15]: 2430 nM | GI50 [16]: 10200 nM | GI50 [17]: 560 nM | GI50 [18]: 510 nM | GI50 [19]: 350 nM | GI50 [20]: 12600 nM | GI50 [21]: 1430 nM | GI50 [22]: 290 nM | GI50 [23]: 3570 nM | GI50 [24]: 860 nM | GI50 [25]: 690 nM | GI50 [26]: 5960 nM | GI50 [27]: 1580 nM | GI50 [28]: 1400 nM | GI50 [29]: 7470 nM | GI50 [30]: 700 nM | GI50 [31]: 3540 nM | GI50 [32]: 4570 nM | GI50 [33]: 9600 nM | GI50 [34]: 90 nM | GI50 [35]: 390 nM | GI50 [36]: 400 nM | GI50 [37]: 7490 nM | GI50 [38]: 1120 nM | GI50 [39]: 990 nM | GI50 [40]: 11100 nM | GI50 [41]: 550 nM | GI50 [42]: 15800 nM | GI50 [43]: 2780 nM | GI50 [44]: 620 nM | GI50 [45]: 410 nM | GI50 [46]: 730 nM | GI50 [47]: 2180 nM | GI50 [48]: 460 nM | GI50 [49]: 330 nM | GI50 [50]: 6270 nM | GI50 [51]: 730 nM | GI50 [52]: 550 nM | GI50 [53]: 4860 nM | GI50 [54]: 10400 nM | GI50 [55]: 340 nM | GI50 [56]: 2050 nM | GI50 [57]: 390 nM | GI50 [58]: 500 nM

Cc1cc(/C=C2\CCc3c([nH]c4ccccc34)C2=O)cc(C)c1O
GI50 [1]: 450 nM | GI50 [2]: 410 nM | GI50 [3]: 120 nM | GI50 [4]: 380 nM | GI50 [5]: 14200 nM | GI50 [59]: 770 nM | GI50 [6]: 1060 nM | GI50 [60]: 530 nM | GI50 [7]: 340 nM | GI50 [8]: 370 nM | GI50 [9]: 650 nM | GI50 [10]: 650 nM | GI50 [11]: 470 nM | GI50 [12]: 580 nM | GI50 [13]: 3380 nM | GI50 [14]: 560 nM | GI50 [15]: 290 nM | GI50 [16]: 1350 nM | GI50 [17]: 420 nM | GI50 [18]: 330 nM | GI50 [19]: 310 nM | GI50 [20]: 740 nM | GI50 [21]: 520 nM | GI50 [22]: 290 nM | GI50 [23]: 1060 nM | GI50 [24]: 730 nM | GI50 [25]: 760 nM | GI50 [26]: 880 nM | GI50 [27]: 550 nM | GI50 [28]: 610 nM | GI50 [29]: 780 nM | GI50 [30]: 350 nM | GI50 [31]: 740 nM | GI50 [32]: 420 nM | GI50 [33]: 3290 nM | GI50 [34]: 130 nM | GI50 [35]: 330 nM | GI50 [36]: 320 nM | GI50 [37]: 2210 nM | GI50 [38]: 430 nM | GI50 [39]: 530 nM | GI50 [40]: 2350 nM | GI50 [41]: 380 nM | GI50 [42]: 4320 nM | GI50 [43]: 1880 nM | GI50 [44]: 620 nM | GI50 [45]: 410 nM | GI50 [46]: 470 nM | GI50 [47]: 360 nM | GI50 [48]: 390 nM | GI50 [49]: 320 nM | GI50 [50]: 540 nM | GI50 [51]: 740 nM | GI50 [52]: 320 nM | GI50 [53]: 1830 nM | GI50 [54]: 530 nM | GI50 [55]: 210 nM | GI50 [56]: 540 nM | GI50 [57]: 220 nM | GI50 [58]: 440 nM

Source: ChEMBL document CHEMBL3217497, “Design, synthesis and antiproliferative activity of indole analogues of indanocine” (2013)
